This is an account of results in patent US10611748B2, “Xanthone derivatives for the treatment of hepatitis B virus disease” (Hoffmann-La Roche Inc., priority 2017, dated 2020).

In assay [1] the test system is extracellular HBeAg level (surrogate marker for cccDNA) in HepDES19 cells. As to the kind of experiment: HepDES19 primary screen assay. Particulars: Hepatitis B virus, 120 h, 5 days compound incubation, HBeAg ELISA. The assay is classed as cell-based, HBV. An outline of the steps: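 HepDES19 cells, Tet-withdrawn 8 days to induce pgRNA, then seeded 24 h before dosing with half-log compound dilutions (1% DMSO final) for 5 days at 37 °C. Extracellular HBeAg by ELISA, viability by CCK-8; IC50 from 4-parameter logistic fit.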

Assay [2] concerns extracellular HBV DNA in HBV-infected PHH. The experiment in a line: Cryopreserved primary human hepatocytes (PHH) assay, HBV DNA. The assay is classed as cell-based. The following applies: Hepatitis B virus, Hepatocyte, 216 h; cryopreserved PHH infected with HBV, 9 days post-compound treatment, quantitative PCR. As to the method: Cryopreserved PHH (BioreclamationIVT, Lot YJM) was thawed at 37° C. and gently transferred into pre-warmed InVitroGRO HT medium (BioreclamationIVT, Cat. S03317). The mixture was centrifuged at 70 relative centrifugal force (RCF) for 3 minutes at RT, and the supernatant was discarded. Pre-warmed InVitroGRO CP medium (BioreclamationIVT, Cat # S03316) was added to the cell pellet to gently re-suspend cells. The cells were seeded at the density of 5.8×10^4 cells per well to collagen I coated 96-well plate (Gibco, Cat. A1142803) with the InVitroGRO CP medium. All plates were incubated at 37° C. with 5% CO2 and 85% humidity.
At 20 hours after plating, the medium was changed to PHH culture medium (Dulbecco's Modified Eagle Medium (DMEM)/F12 (1:1) (Gibco, Cat. 11320-033), 10% fetal bovine serum (Gibco Cat. 10099141), 100 U/mL penicillin, 100 μg/mL streptomycin (Gibco, Cat. 151401-122), 5 ng/mL human epidermal growth factor (Invitrogen Cat. PHG0311L), 20 ng/mL dexamethasone (Sigma, Cat. D4902) and 250 ng/mL human recombinant insulin (Gibco, Cat. 12585-014)). And the cells were incubated at 37° C. with 5% CO2 and 85% humidity for 4 hours. The medium was then changed to pre-warmed PHH culture medium containing 4% polyethylene glycol (PEG) MW8000 (Sigma, Cat. P1458-50ML) and 1% DMSO (Sigma, Cat. D2650). 5.8×10^6 genomic equivalents of HBV were added into the medium.
At 24 hours post-infection, the cells were gently washed with PBS and refreshed with PHH culture medium supplemented with 1% DMSO, and 0.25 mg/mL Matrix gel (Corning, Cat. 356237) at 200 μL per well. All plates were immediately placed in at 37° C. CO2 incubator.
24 hours later, serial dilutions of compounds made with DMSO were further diluted with the same culture medium (PHH culture medium supplemented with 1% DMSO and 0.25 mg/mL Matrix gel as described above) before they were added to the cells to reach desired final compound concentrations and 1% DMSO concentration. The medium containing the compounds were refreshed every three days.
At 9 days post-compound treatment, extracellular HBsAg level were measured with Chemiluminescence Immuno Assay (CLIA) kit (Autobio, HBsAg Quantitative CLIA). Extracellular HBV DNA was extracted by MagNA Pure 96 system (Roche) and then determined by quantitative PCR with the following primers and probe: HBV-Forward Primer (SEQ ID NO:2): […] (5′ to 3′); HBV-Reverse Primer (SEQ ID NO:3): […](5′ to 3′); HBV-Probe: 5′+tetramethylrhodamine+SEQ ID NO:4+black hole quencher 2-3′, wherein SEQ ID NO:4 is […].
HBsAg IC50 and HBV DNA IC50 values were derived from the dose-response curve using 4 parameter logistic curve fit method.

`O=C(O)[C@H]1CCN(c2ccc3c(=O)c4cccc(Cl)c4oc3c2)C1` [Example 4, (3S)-1-(5-chloro-9-oxo-xanthen-3-yl)pyrrolidine-3-carboxylic acid]: the 50% inhibitory concentration (IC50) in assay [1] came to 2180 nM; in assay [2], 1930 nM.

As to `O=C(O)C1CCN(c2ccc3c(=O)c4cccc(Cl)c4oc3c2)C1` (stereo not drawn) [Example 2, 1-(5-chloro-9-oxo-xanthen-3-yl)pyrrolidine-3-carboxylic acid], the concentration for half-maximal inhibition (IC50) in assay [1] was 2180 nM; in assay [2], 2300 nM.

Turning to `O=C(O)C1CCN(c2ccc3c(=O)c4c(Cl)ccc(Cl)c4oc3c2)C1` (stereo not drawn) [Example 26, 1-(5,8-dichloro-9-oxo-xanthen-3-yl)pyrrolidine-3-carboxylic Acid], the concentration for half-maximal inhibition (IC50) in assay [1] was found to be 2360 nM.

For `O=C(O)C1CCN(c2ccc3c(=O)c4cccc(F)c4oc3c2)C1` (stereo not drawn) [Example 5, 1-(5-fluoro-9-oxo-xanthen-3-yl)pyrrolidine-3-carboxylic acid], the values for the half-inhibitory concentration (IC50) in assay [1] and in assay [2] were 3330 nM and 9620 nM, respectively.

Take `O=C(O)[C@@H]1CCN(c2ccc3c(=O)c4cccc(Cl)c4oc3c2)C1` [Example 3, (3R)-1-(5-chloro-9-oxo-xanthen-3-yl)pyrrolidine-3-carboxylic acid]: the figures for the concentration for half-maximal inhibition (IC50) in assay [1] and in assay [2] were 1240 nM and 1610 nM, respectively.
